Test results as given in patent publication US20140121732A1, “METHODS AND COMPOSITIONS FOR ADMINISTERING A SPECIFIC WAVELENGTH PHOTOTHERAPY” (Applied Biology, Inc., priority 2011, published 2014).

Assay: UV absorbance spectrum and derived transmittance profile of photocream applied at 20 μm
Assay type: physicochemical
Text: In one embodiment of the present invention, a band-pass photocream is composed such that it is optimized to have maximum transmittance at a therapeutic wavelength of 311 nm for the treatment of vitiligo, psoriasis, atopic dermatitis, and other skin conditions. Said photocream would contain two UV absorbing active ingredients having UV absorbance spectra that when combined in a determined ratio would have a spectral minimum (valley) at 311 nm. For example, a band-pass photocream could be formulated with silymarin (CAS#22888-70-6) and diethylamino hydroxybenzoyl hexyl benzoate (CAS#302776-68-7) in a weight to weight ratio of 2:3 (or less preferably within the range 1:2 to 5:6, or within the range 5:9 to 7:9) to produce an absorbance spectrum with a spectral valley at 311 nm. Said photocream may contain 0.75% (w/w) silymarin (CAS#22888-70-6) and 1.125% (w/w) diethylamino hydroxybenzoyl hexyl benzoate (CAS#302776-68-7). An illustrative absorbance spectrum for such a composition is shown in FIG. 3 when applied at a thickness of 20 μm. […] Alternatively, a band-pass photocream could be formulated with alpha-glucosyl hesperidin (CAS#161713-86-6) and diethylamino hydroxybenzoyl hexyl benzoate (CAS#302776-68-7) in the weight to weight ratio of 4:1 (or less preferably within the range 3:1 to 5:1, or within the range 7:2 to 9:2) to produce an absorbance spectrum with a spectral valley at 311 nm.
In yet another embodiment, a combination of UV absorbing molecules may be formulated to selectively pass UVB light in the range 306-310 nm for the benefit of maximum vitamin D production while still providing limited protecting from erythema. Said photocream may contain two UV absorbing active ingredients having UV absorption spectra that when combined in a determined ratio would have a spectral minimum (valley) at 308 nm. […] Said photocream could contain 1% (w/w) silymarin (CAS#22888-70-6) and 2.5% (w/w) diethylamino hydroxybenzoyl hexyl benzoate (CAS#302776-68-7) and would produce an absorbance spectra shown in FIG. 7 when applied at a thickness of 20 μm. […]

| SMILES | UV absorbance (in words) |
| --- | --- |
| COc1ccc(C(=O)CC(=O)c2ccc(C(C)(C)C)cc2)cc1 [Avobenzone, avobenzone] | significant absorbance in the UVA |
| COc1ccc([C@@H]2CC(=O)c3c(O)cc(O[C@@H]4O[C@H](CO[C@@H]5O[C@@H](C)[C@H](O)[C@@H](O)[C@H]5O)[C@@H](O)[C@H](O)[C@H]4O)cc3O2)cc1O [Hesperidin, hesperidin] | significant absorbance in the lower UVB range below roughly 310 nm |
| COC(=O)C=Cc1ccccc1 [Methyl cinnamate, methyl cinnamate] | significant absorbance in the lower UVB range below roughly 310 nm |
